Test results published in patent publication US11208400B2, “Substituted 6-(1H-pyrazol-1-yl)pyrimidin-4-amine derivatives and uses thereof” (Bayer Aktiengesellschaft, priority 2016, dated 2021).
pIC50: −log10 of the molar value. Structures can show the parent of a compound that is named as a salt.

Target: T1, human Npt2a (Homo sapiens, UniProt Q06495)
T1 construct: expressed in transfected cells
T1 sequence (Q06495 1-639): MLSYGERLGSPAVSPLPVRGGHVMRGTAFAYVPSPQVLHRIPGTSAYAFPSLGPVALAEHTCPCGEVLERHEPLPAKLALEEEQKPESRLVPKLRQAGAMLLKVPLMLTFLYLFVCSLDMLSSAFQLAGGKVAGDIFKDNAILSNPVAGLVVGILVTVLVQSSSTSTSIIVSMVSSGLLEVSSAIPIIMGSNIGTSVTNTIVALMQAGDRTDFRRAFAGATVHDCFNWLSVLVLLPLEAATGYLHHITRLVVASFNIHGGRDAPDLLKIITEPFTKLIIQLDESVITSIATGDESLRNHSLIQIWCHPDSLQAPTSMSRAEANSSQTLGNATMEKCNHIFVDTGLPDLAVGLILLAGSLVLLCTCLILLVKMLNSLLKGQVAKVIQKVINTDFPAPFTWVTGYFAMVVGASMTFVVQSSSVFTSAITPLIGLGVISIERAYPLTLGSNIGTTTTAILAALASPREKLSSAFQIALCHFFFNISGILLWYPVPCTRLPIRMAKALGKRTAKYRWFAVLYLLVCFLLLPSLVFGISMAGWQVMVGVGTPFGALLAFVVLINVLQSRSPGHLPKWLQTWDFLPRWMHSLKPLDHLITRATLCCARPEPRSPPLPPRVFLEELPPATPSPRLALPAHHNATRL
Assay: Npt2a activity cell based assay, membrane potential dye, CHO T-REx hNpt2a cells
Conditions: doxycycline-induced, depolarization by sodium phosphate influx, average or median values if tested more than once
How it was run: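 Doxycycline-induced (0.5 μg/mL, 24 h) CHO T-REx cells were loaded with membrane potential dye in sodium-free NHE buffer (pH 7.4) and exposed to compound (50 μM–1 nM, 5 min, room temperature).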

Q: How did the pIC50 turn out when `Cc1nn(-c2cc(Nc3nn(C)c(-c4ccc(F)cc4F)c3Cl)ncn2)c(C)c1Cl` [Example 56, N-[4-chloro-5-(2,4-difluorophenyl)-1-methyl-1H-pyrazol-3-yl]-6-(4-chloro-3,5-dimethyl-1H-pyrazol-1-yl)pyrimidin-4-amine] was run?
A: The pIC50 was 7.69.

Q: With `Cc1nn(-c2cc(Nc3nn(C)c(-c4ccc(F)cc4)c3OC(F)F)ncn2)c(C)c1C(C)(C)O` [Example 500, 2-[1-(6-{[4-(difluoromethoxy)-5-(4-fluorophenyl)-1-methyl-1H-pyrazol-3-yl]amino}pyrimidin-4-yl)-3,5-dimethyl-1H-pyrazol-4-yl]propan-2-ol] as the compound, how does the pIC50 read?
A: Its pIC50 is 7.28.

Q: How did the pIC50 turn out when `Cc1nn(-c2cc(Nc3c(C)c(-c4ccc(F)cc4)nn3CC3CC3)ncn2)c(C)c1CN1CC(F)(F)C1` [Example 390, N-[1-(cyclopropylmethyl)-3-(4-fluorophenyl)-4-methyl-1H-pyrazol-5-yl]-6-{4-[(3,3-difluoroazetidin-1-yl)methyl]-3,5-dimethyl-1H-pyrazol-1-yl}pyrimidin-4-amine] was run?
A: Its pIC50 is 7.60.

Q: With `Cc1c(-c2ccc(F)cc2)nn(CC2CC2)c1Nc1cc(-n2nc3c(c2C)C(C)(O)CC3)ncn1` (single isomer, unassigned) [Example 516, 2-(6-{[1-(cyclopropylmethyl)-3-(4-fluorophenyl)-4-methyl-1H-pyrazol-5-yl]amino}pyrimidin-4-yl)-3,4-dimethyl-2,4,5,6-tetrahydrocyclopenta[c]pyrazol-4-ol] as the compound, how does the pIC50 read?
A: Its pIC50 is 7.51.

Q: How did the pIC50 turn out when `CNc1ccc(-c2nn(CC3CC3)c(Nc3cc(-n4nc(C)cc4C(F)F)ncn3)c2C)cc1` [Example 487, N-{1-(cyclopropylmethyl)-4-methyl-3-[4-(methylamino)phenyl]-1H-pyrazol-5-yl}-6-[5-(difluoromethyl)-3-methyl-1H-pyrazol-1-yl]pyrimidin-4-amine] was run?
A: Its pIC50 is 6.82.

Q: `CCc1c(-c2ccc(C#N)cc2)nn(C)c1Nc1cc(-n2nc(C)cc2C)ncn1` [Example 209, 4-(5-{[6-(3,5-dimethyl-1H-pyrazol-1-yl)pyrimidin-4-yl]amino}-4-ethyl-1-methyl-1H-pyrazol-3-yl)benzonitrile] was tested. Which pIC50 did it give?
A: The pIC50 was 7.74.

Q: How did the pIC50 turn out when `COCCn1nc(-c2ccc(F)cn2)c(C)c1Nc1cc(-n2nc(C)c(OC)c2C)ncn1` [Example 544, N-[3-(5-fluoropyridin-2-yl)-1-(2-methoxyethyl)-4-methyl-1H-pyrazol-5-yl]-6-(4-methoxy-3,5-dimethyl-1H-pyrazol-1-yl)pyrimidin-4-amine] was run?
A: The pIC50 was 7.96.

Q: How did the pIC50 turn out when `Cc1cc(C)n(-c2cc(Nc3c(C)c(-c4ccc(Cl)cc4)nn3C)ncn2)n1` [Example 354, N-[3-(4-chlorophenyl)-1,4-dimethyl-1H-pyrazol-5-yl]-6-(3,5-dimethyl-1H-pyrazol-1-yl)pyrimidin-4-amine] was run?
A: The pIC50 was 6.87.

Q: With `CCc1c(Nc2cc(-n3nc(C)c4ccccc43)ncn2)n[nH]c1-c1ccc(F)cc1` [Example 19, N-[4-ethyl-5-(4-fluorophenyl)-1H-pyrazol-3-yl]-6-(3-methyl-1H-indazol-1-yl)pyrimidin-4-amine] as the compound, how does the pIC50 read?
A: Its pIC50 is 6.96.

Q: With `Cc1nn(-c2cc(Nc3c(C)c(-c4ccc(F)cn4)nn3CC3CC3)ncn2)c(C)c1C(C)(C)O` [Example 458, 2-[1-(6-{[1-(cyclopropylmethyl)-3-(5-fluoropyridin-2-yl)-4-methyl-1H-pyrazol-5-yl]amino}pyrimidin-4-yl)-3,5-dimethyl-1H-pyrazol-4-yl]propan-2-ol] as the compound, how does the pIC50 read?
A: Its pIC50 is 5.81.

Q: `Cc1nn(-c2cc(Nc3c(C)c(-c4ccc(C#N)cc4)nn3CC3CC3)ncn2)c(C(F)F)c1Cl` [Example 154, 4-[5-({6-[4-chloro-5-(difluoromethyl)-3-methyl-1H-pyrazol-1-yl]pyrimidin-4-yl}amino)-1-(cyclopropylmethyl)-4-methyl-1H-pyrazol-3-yl]benzonitrile] was tested. Which pIC50 did it give?
A: Its pIC50 is 8.52.

Q: `Cc1nn(-c2cc(Nc3nn(C)c(-c4ccc(F)cc4)c3C)ncn2)c(C(C)(C)O)c1Cl` [Example 261, 2-[4-chloro-1-(6-{[5-(4-fluorophenyl)-1,4-dimethyl-1H-pyrazol-3-yl]amino}pyrimidin-4-yl)-3-methyl-1H-pyrazol-5-yl]propan-2-ol] was tested. Which pIC50 did it give?
A: Its pIC50 is 7.70.

Q: `CCNc1c(C)nn(-c2cc(Nc3c(C)c(-c4ccc(F)cc4)nn3CC3CC3)ncn2)c1C` [Example 501, N-[1-(cyclopropylmethyl)-3-(4-fluorophenyl)-4-methyl-1H-pyrazol-5-yl]-6-[4-(ethylamino)-3,5-dimethyl-1H-pyrazol-1-yl]pyrimidin-4-amine trifluoroacetate] was tested. Which pIC50 did it give?
A: Its pIC50 is 8.30.

Q: How did the pIC50 turn out when `Cc1nn(-c2cc(Nc3c(C)c(-c4ccc(F)cc4)nn3C)ncn2)c(C(F)F)c1Cl` [Example 139, 6-[4-chloro-5-(difluoromethyl)-3-methyl-1H-pyrazol-1-yl]-N-[3-(4-fluorophenyl)-1,4-dimethyl-1H-pyrazol-5-yl]pyrimidin-4-amine] was run?
A: Its pIC50 is 6.89.

Q: `Cc1nn(-c2cc(Nc3c(C)c(-c4ccc(F)cc4)nn3CC3CC3)ncn2)c(C)c1C(=O)N(C)C` [Example 402, 1-(6-{[1-(cyclopropylmethyl)-3-(4-fluorophenyl)-4-methyl-1H-pyrazol-5-yl]amino}pyrimidin-4-yl)-N,N,3,5-tetramethyl-1H-pyrazole-4-carboxamide] was tested. Which pIC50 did it give?
A: Its pIC50 is 7.26.

Q: With `Cc1nn(-c2cc(Nc3c(C)c(-c4ccc(C#N)cc4)nn3CC3CC3)ncn2)c(C)c1C(O)C(F)(F)F` (single isomer, unassigned) [Example 360, 4-{1-(cyclopropylmethyl)-5-[(6-{3,5-dimethyl-4-[(1 S)-2,2,2-trifluoro-1-hydroxyethyl]-1H-pyrazol-1-yl}pyrimidin-4-yl)amino]-4-methyl-1H-pyrazol-3-yl}benzonitrile] as the compound, how does the pIC50 read?
A: Its pIC50 is 8.22.

Q: How did the pIC50 turn out when `Cc1nn(-c2cc(Nc3c(C)c(-c4ccc(F)cc4)nn3CC3CC3)ncn2)c(C)c1OCC#N` [Example 506, {[1-(6-{[1-(cyclopropylmethyl)-3-(4-fluorophenyl)-4-methyl-1H-pyrazol-5-yl]amino}pyrimidin-4-yl)-3,5-dimethyl-1H-pyrazol-4-yl]oxy}acetonitrile] was run?
A: The pIC50 was 7.55.

Q: How did the pIC50 turn out when `CCOC(=O)c1cc(C)nn1-c1cc(Nc2c(C)c(-c3ccc(C#N)cc3)nn2CC2CC2)ncn1` [Example 258, ethyl 1-(6-{[3-(4-cyanophenyl)-1-(cyclopropylmethyl)-4-methyl-1H-pyrazol-5-yl]amino}pyrimidin-4-yl)-3-methyl-1H-pyrazole-5-carboxylate] was run?
A: Its pIC50 is 5.55.

Q: `COC(C)c1c(C)nn(-c2cc(Nc3nn(C)c(-c4ccc(F)cc4)c3C)ncn2)c1C` (racemic) [Example 343, (±)-N-[5-(4-fluorophenyl)-1,4-dimethyl-1H-pyrazol-3-yl]-6-{4-[1-methoxyethyl]-3,5-dimethyl-1H-pyrazol-1-yl}pyrimidin-4-amine] was tested. Which pIC50 did it give?
A: Its pIC50 is 8.22.

Q: `COc1c(C)nn(-c2cc(Nc3c(C)c(-c4ccc(F)cc4)nn3CC3CC3)ncn2)c1C` [Example 385, N-[1-(cyclopropylmethyl)-3-(4-fluorophenyl)-4-methyl-1H-pyrazol-5-yl]-6-(4-methoxy-3,5-dimethyl-1H-pyrazol-1-yl)pyrimidin-4-amine] was tested. Which pIC50 did it give?
A: Its pIC50 is 8.40.

Q: How did the pIC50 turn out when `Cc1cc(C)n(-c2cc(Nc3c(Cl)c(-c4ccccc4)nn3C)ncn2)n1` [Example 457, N-(4-chloro-1-methyl-3-phenyl-1H-pyrazol-5-yl)-6-(3,5-dimethyl-1H-pyrazol-1-yl)pyrimidin-4-amine] was run?
A: The pIC50 was 6.89.

Q: How did the pIC50 turn out when `Cc1c(Nc2cc(-n3cc(C(F)(F)F)cn3)ncn2)nn(C)c1-c1ccc(F)cc1` [Example 424, N-[5-(4-fluorophenyl)-1,4-dimethyl-1H-pyrazol-3-yl]-6-[4-(trifluoromethyl)-1H-pyrazol-1-yl]pyrimidin-4-amine] was run?
A: The pIC50 was 6.43.

Q: `CCc1c(Nc2cc(-n3nc(C)c(C(=O)N4CC(F)C4)c3C)ncn2)nn(C)c1-c1ccc(F)cc1` [Example 126, [1-(6-{[4-ethyl-5-(4-fluorophenyl)-1-methyl-1H-pyrazol-3-yl]amino}pyrimidin-4-yl)-3,5-dimethyl-1H-pyrazol-4-yl](3-fluoroazetidin-1-yl)methanone] was tested. Which pIC50 did it give?
A: The pIC50 was 6.01.

Q: How did the pIC50 turn out when `Cc1nn(-c2cc(Nc3c(C)c(-c4ccc(F)cc4)nn3CC3CC3)ncn2)c(C)c1C(C)O` (racemic) [Example 249, (±)-1-[1-(6-{[1-(cyclopropylmethyl)-3-(4-fluorophenyl)-4-methyl-1H-pyrazol-5-yl]amino}pyrimidin-4-yl)-3,5-dimethyl-1H-pyrazol-4-yl]ethanol] was run?
A: Its pIC50 is 7.66.

Q: `CCc1c(Nc2cc(-n3nc4c(c3O)CCCC4)ncn2)n[nH]c1-c1ccc(F)cc1` [Example 30, 2-(6-{[4-ethyl-5-(4-fluorophenyl)-1H-pyrazol-3-yl]amino}pyrimidin-4-yl)-4,5,6,7-tetrahydro-2H-indazol-3-ol] was tested. Which pIC50 did it give?
A: Its pIC50 is 6.21.

Q: With `COCCn1nc(-c2ccc(C#N)cc2)c(C)c1Nc1cc(-n2nc(C)cc2C)ncn1` [Example 555, 4-[5-{[6-(3,5-dimethyl-1H-pyrazol-1-yl)pyrimidin-4-yl]amino}-1-(2-methoxyethyl)-4-methyl-1H-pyrazol-3-yl]benzonitrile] as the compound, how does the pIC50 read?
A: Its pIC50 is 8.80.

Q: How did the pIC50 turn out when `Cc1nn(-c2cc(Nc3c(C)c(-c4ccc(OC(F)(F)F)cc4)nn3CC3CC3)ncn2)c(C)c1C(C)(C)O` [Example 289, 2-{1-[6-({1-(cyclopropylmethyl)-4-methyl-3-[4-(trifluoromethoxy)phenyl]-1H-pyrazol-5-yl}amino)pyrimidin-4-yl]-3,5-dimethyl-1H-pyrazol-4-yl}propan-2-ol] was run?
A: Its pIC50 is 7.64.
